Here are results for seven molecules from US5885972A, “L-pyranosyl nucleosides” (Genencor International, Inc., priority 1996, dated 1999).

The nature of data set [1]: In vitro survival of control bone marrow cells exposed to compound (Table I). Particulars: human, 10 μg/ml. Type of data set: cell-based. The source says: (§1) In vitro activity against certain human tumor cell lines. CELL LINES: Eight different established human cell lines (CALU (lung), COLO320 (colon), H578St (breast), HT-29 (colon), MCF-7 (breast), OM-1 (colon), SKLU (lung), and SKMES (lung) and two control cell lines (bone marrow cell lines and/or fibroblasts) were utilized. All cell lines were obtained from the Tumor Cloning Laboratory, Institute for Drug Development, Cancer Therapy and Research Center, San Antonio, Tex. All cell lines grew as monolayers in the appropriate culture medium supplemented with heat-inactivated calf serum. All reagents were obtained from Grand Island Biological Co., Grand Island, N.Y.
IN VITRO EXPOSURE OF TUMOR CELLS TO COMPOUNDS: Stock solutions of intravenous (iv) formulations of certain of the compounds of the present invention (as shown in Table I below), as well as intravenous formulations of 5-FU (control) were used. The iv formulations of the compounds of the present invention were prepared with sterile buffered saline and stored at -70° C. until required for testing.
(§2) Following trypsinization, tumor cells were suspended in tissue culture medium and exposed to the antitumor agents continuously at three different concentrations: 10, 1 and 0.1 μg/ml.
RADIOMETRIC MEASUREMENT OF GROWTH INHIBITION: Growth inhibition was assessed with the BACTEC System 460 (Johnston Laboratories, Towson, Md.) after addition of the antitumor agent to the cells in the respective growth medium containing ^14 C-glucose at a final concentration of 2 μCi/ml. (See generally, C. Arteaga, et al., A Radiometric Method for Evaluation of Chemotherapy Sensitivity: Results of Screening a Panel of Human Breast Cancer Cell Lines, Cancer Research, 47, 6248-6253, (1987).)
Two mls of the tumor cell suspension containing radioactive glucose were seeded into sterile, disposable 15 ml vials by injection through self-sealing rubber-aluminum caps. […] The seeded vials were then incubated at 37° C. Measurement of the release of ^14 CO2 resulting from the metabolism of ^14 C-glucose were performed on days 6, 9, 12, and 15 in the BACTEC instrument. This instrument flushes the ^14 CO2 containing air out of the vials into an ionization chamber that converts dpm to growth index values. Chemotherapy sensitivity was calculated by comparing the growth index values of drug-treated vials to that observed in control vials. Each data point represents triplicate values.
(§3) All compounds were compared on an equimilimolar level.
The data presented in Table I are compared to results achieved with 5-FU as the control. All compounds were dosed on an equimilimolar basis. Inhibitory concentration (IC 50) is defined as the concentration required to kill 50% of the untreated cancer cells. Although the IC 50 of certain of the compounds listed in Table I may be higher than that for 5-FU (the control), the compounds of the present invention are generally less toxic to normal cells such as bone marrow or fibroblasts. […] Additionally, because of their lower toxicity to normal cells, it is anticipated that the present compounds may be dosed at a higher rate to selectively increase toxicity to the cancer cells. In this regard, a therapeutic ratio for a given compound is typically determined by the following calculation. [formula] A therapeutic ratio of <80% is considered active. In Vivo Evaluation

The subject of data set [2] is OM-1. The experiment in a line: In vitro radiometric (BACTEC) growth inhibition of human tumor cell line OM-1 (colon). It counts as cell-based. The following applies: for viability at 10 µg/mL: OM-1, 10 μg/ml.
From the text: as §1
(§4) The iv formulations of the compounds of the present invention were prepared with sterile buffered saline and stored at -70° C. until required for testing.
as §2
(§5) RADIOMETRIC MEASUREMENT OF GROWTH INHIBITION: Growth inhibition was assessed with the BACTEC System 460 (Johnston Laboratories, Towson, Md.) after addition of the antitumor agent to the cells in the respective growth medium containing ^14 C-glucose at a final concentration of 2 μCi/ml.
(§6) Two mls of the tumor cell suspension containing radioactive glucose were seeded into sterile, disposable 15 ml vials by injection through self-sealing rubber-aluminum caps. […] The seeded vials were then incubated at 37° C. Measurement of the release of ^14 CO2 resulting from the metabolism of ^14 C-glucose were performed on days 6, 9, 12, and 15 in the BACTEC instrument. This instrument flushes the ^14 CO2 containing air out of the vials into an ionization chamber that converts dpm to growth index values. […] Each data point represents triplicate values.
as §3
(§7) All compounds were dosed on an equimilimolar basis. […] [formula] A therapeutic ratio of <80% is considered active. In Vivo Evaluation

Data set [3] concerns HS578T. As to the kind of experiment: In vitro radiometric (BACTEC) growth inhibition of human tumor cell line HS578T (breast). Type of data set: cell-based. The following applies: Hs-578T; for viability at 10 µg/mL: 10 μg/ml, read-out: % survival tumor.
From the text: as §1, §4, §2, §5, §6, §3, §7

In data set [4] the test system is MCF-7. As to the kind of experiment: In vitro radiometric (BACTEC) growth inhibition of human tumor cell line MCF-7 (breast). It counts as cell-based. The following applies: for viability at 10 µg/mL: MCF7, MCF-7, 10 μg/ml.
From the text: as §1, §4, §2, §5, §6, §3, §7

The test system of data set [5] is SKLU. The experiment in a line: In vitro radiometric (BACTEC) growth inhibition of human tumor cell line SKLU (lung). Type of data set: cell-based. Particulars: for viability at 10 µg/mL: 10 μg/ml.
From the text: as §1, §4, §2, §5, §6, §3, §7

In data set [6] the test system is SKMES. As to the kind of experiment: In vitro radiometric (BACTEC) growth inhibition of human tumor cell line SKMES (lung). Type of data set: cell-based.
From the text: as §1, §4, §2, §5, §6, §3, §7

Data set [7] has as its system HT-29. As to the kind of experiment: In vitro radiometric (BACTEC) growth inhibition of human tumor cell line HT-29 (colon). Particulars: for viability at 10 µg/mL: 10 μg/ml. Type of data set: cell-based.
From the text: as §1, §4, §2, §5, §6, §3, §7

For data set [8], the system named is HS578T. The experiment in a line: In vitro radiometric (BACTEC) growth inhibition of human tumor cell line HS578T (breast). It counts as cell-based. Particulars: Hs-578T, 6 μg/ml, read-out: % survival tumor.
The subject of data set [9] is COLO320. As to the kind of experiment: In vitro radiometric (BACTEC) growth inhibition of human tumor cell line COLO320 (colon). Type of data set: cell-based.
From the text: as §1, with “N.Y. […]” for “N.Y.”
(§8) RADIOMETRIC MEASUREMENT OF GROWTH INHIBITION: Growth inhibition was assessed with the BACTEC System 460 (Johnston Laboratories, Towson, Md.) after addition of the antitumor agent to the cells in the respective growth medium containing ^14 C-glucose at a final concentration of 2 μCi/ml. […]
(§9) Two mls of the tumor cell suspension containing radioactive glucose were seeded into sterile, disposable 15 ml vials by injection through self-sealing rubber-aluminum caps. […] Chemotherapy sensitivity was calculated by comparing the growth index values of drug-treated vials to that observed in control vials. […]

For data set [10] the following is noted: background statement on marketed drug; cited from earlier work.
Data set [11] has as its system CALU. The experiment in a line: In vitro radiometric (BACTEC) growth inhibition of human tumor cell line CALU (lung). Type of data set: cell-based.
From the text: as §1, with “N.Y. […]” for “N.Y.”
as §8, §9

Setting [12] is: OM-1, continuous exposure, read-out: IC 50.
The mark [13] stands for this setting: HS578T, continuous exposure, read-out: IC 50.
Setting [14] is: MCF7, MCF-7, continuous exposure, read-out: IC 50.
The mark [15] stands for this setting: SKLU, read-out: % survival tumor.
[16] abbreviates: SKLU, continuous exposure, read-out: IC 50.
Where [17] appears, read: continuous exposure, read-out: IC 50.
[18] abbreviates: 6 μg/ml, read-out: % survival tumor.

SMILES strings stand for the structures. Values after ≈ are worked out from the molar mass of the structure shown. Where two headings read alike, the source gives them in different places.

With `Nc1ccn([C@H]2OC[C@H](O)[C@H](O)[C@@H]2O)c(=O)n1` [(8), β-L-ribopyranosylcytosine], the viability in data set [1] is 93.1%. Further, the viability at 10 µg/mL in data set [2] (read-out: % survival tumor) came out at 78.9%; in [3] (HS578T), 89.2%; in data set [4] (read-out: % survival tumor), 72.2%. The IC50 in data set [2] (setting [12]), in data set [3] (setting [13]) and in data set [4] (setting [14]) was greater than 10 µg/mL throughout.

Turning to `Nc1ncnc2c1ncn2[C@H]1OC[C@H](O)[C@H](O)[C@@H]1O` [(11)], the viability in data set [1] came out at 94.1%. The viability at 10 µg/mL was 41.6% in [2] (read-out: % survival tumor) and 43.6% in [3] (HS578T). Further, the IC50 worked out at 8.3 µg/mL (≈ 31.1 µM) in [2] (setting [12]) and 7.8 µg/mL (≈ 29.2 µM) in data set [3] (setting [13]).

For the molecule `O=c1ccn([C@H]2OC[C@H](O)[C@H](O)[C@@H]2O)c(=O)[nH]1` [(3), β-L-ribopyranosyluracil], in [1], the viability was 96%. Also, the viability at 10 µg/mL in data set [3] (HS578T) came out at 86.7%. Besides, the IC50 in data set [3] (setting [13]) was greater than 10 µg/mL.

Consider `O=c1[nH]c(=O)n([C@H]2OC[C@H](O)[C@H](O)[C@@H]2O)cc1F` [(5), β-L-ribopyranosyl-5-fluorouracil], for which the viability at 10 µg/mL amounted to 90.1% in data set [5] (setting [15]); 68.2% in data set [6] (SKMES, 10 μg/ml, read-out: % survival tumor); 76.2% in [4] (read-out: % survival tumor). In addition, the IC50 was greater than 10 µg/mL in data set [5] (setting [16]); greater than 10 µg/mL in data set [6] (SKMES, continuous exposure, read-out: IC 50); greater than 10 µg/mL in data set [4] (setting [14]). Also, the viability in data set [1] was 116%.

Turning to `Nc1nc2c(ncn2[C@H]2OC[C@H](O)[C@H](O)[C@@H]2O)c(=O)[nH]1` [(14), β-L-ribopyranosylguanine], the viability in data set [1] was 106%. Further, the viability at 10 µg/mL in data set [7] (read-out: % survival tumor) was determined as 94.8%. The IC50 in data set [7] (setting [17]) is greater than 10 µg/mL.

For `O=c1[nH]cc(F)c(=O)[nH]1` [Compound 5-FU, 5-fluorouracil, reference compound], the IC50 was 1.05 µg/mL (≈ 8.07 µM) in data set [5]; less than 0.6 µg/mL in data set [9] (COLO 320, continuous exposure); 1.47 µg/mL (≈ 11.3 µM) in data set [2]; less than 0.6 µg/mL in data set [6]; 0.61 µg/mL (≈ 4.69 µM) in data set [7]; less than 0.6 µg/mL in data set [3]. The IC50 in data set [11] (continuous exposure) and in [4] (MCF7) was less than 0.6 µg/mL each time. The viability at 6 µg/mL worked out at 24.7% in data set [5] (SKLU, 6 μg/ml, read-out: % survival tumor); 12.5% in data set [8]; 1% in [9] (COLO 320, 6 μg/ml, read-out: % survival tumor); 20.1% in [2] (OM-1, 6 μg/ml, read-out: % survival tumor); 29.1% in data set [6] (SKMES, 6 μg/ml, read-out: % survival tumor); 5.7% in data set [7] (setting [18]). The viability at 6 µg/mL in [11] (setting [18]) is 9.9%; in data set [4] (MCF7, MCF-7, 6 μg/ml, read-out: % survival tumor), 4.2%. Further, the side effects entry in data set [10] was “GI side effects like nausea, vomiting and diarrhea, leukopenia, thrombocytopenia, alopecia”.

With `O=c1[nH]c(=O)n([C@@H]2OC[C@H](O)[C@H](O)[C@@H]2O)cc1F` [(18), α-L-ribopyranosyl-5-fluorouracil], the viability at 10 µg/mL in [5] (setting [15]) is 78.4%; in data set [2] (read-out: % survival tumor), 82.5%; in data set [7] (read-out: % survival tumor) it was 83.1%; in [3] (HS578T) it was 83.6%. The IC50 in data set [5] (setting [16]) amounted to 57.1 µg/mL (≈ 218 µM); in data set [2] (setting [12]) it was 65.1 µg/mL (≈ 248 µM); in data set [7] (setting [17]), 119 µg/mL (≈ 454 µM); in data set [3] (setting [13]), 50.8 µg/mL (≈ 194 µM). Besides, in [1], the viability is 166%.
